Test results as given in paper doi:10.1101/2024.08.19.608619, “Discovery of potent SARS-CoV-2 nsp3 macrodomain inhibitors uncovers lack of translation to cellular antiviral response” (bioRxiv, 2024).
Values joined by “and” are separate entries in the source; they are usually repeats but may differ in a detail not shown here. Identical values can stand only once.

What was measured:
5-HT transporter (h) = target: T1, 5-HT transporter (h) (Homo sapiens, UniProt P31645); test: In vitro CEREP profiling, 5-HT transporter (h) (antagonist radioligand); conditions: test compound concentration 10 uM
T1 construct: purchased Eurofins Cerep (SafetyScreen44), recognised from the panel format
Source text: (§1) Supplement media-1.zip/Safety_Panel_Profile.csv, table | column: perc_inhibition

5-HT1A (h) = target: T2, 5-HT1A (h) (Homo sapiens, UniProt P08908); test: In vitro CEREP profiling, 5-HT1A (h) (agonist radioligand); type: binding; conditions: test compound concentration 10 uM
T2 construct: purchased Eurofins Cerep (SafetyScreen44), recognised from the panel format
T2 sequence (P08908 1-422): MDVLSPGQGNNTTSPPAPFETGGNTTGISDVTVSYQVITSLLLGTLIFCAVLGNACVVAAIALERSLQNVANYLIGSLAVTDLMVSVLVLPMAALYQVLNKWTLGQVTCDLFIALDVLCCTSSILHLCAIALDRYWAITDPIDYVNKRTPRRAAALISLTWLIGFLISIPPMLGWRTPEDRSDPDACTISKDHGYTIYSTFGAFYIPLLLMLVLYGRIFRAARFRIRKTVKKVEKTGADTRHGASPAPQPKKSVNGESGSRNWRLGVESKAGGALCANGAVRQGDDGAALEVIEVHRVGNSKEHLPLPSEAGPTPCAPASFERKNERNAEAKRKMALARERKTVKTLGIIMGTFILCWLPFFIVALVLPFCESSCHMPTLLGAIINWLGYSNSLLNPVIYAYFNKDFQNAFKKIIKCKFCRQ
Source text: as §1

MERS-CoV = test: microbe, parasite or virus in culture; type: cell-based; conditions: Vero E6/TMPRSS2 MERS-CoV antiviral effect with P-gp inhibitor; for perc_max_measured: maximum measured response of dose series; for perc_min_measured: minimum measured response of dose series; for EC50: read-out: ec50; for EC90: read-out: ec90
[1] = tested on: SARS-CoV-2, isolate USA-WA1/2020; test: microbe, parasite or virus in culture; type: cell-based; conditions: HeLa-ACE2 SARS-CoV-2 antiviral effect without P-gp inhibitor; for EC50: read-out: ec50; for EC90: read-out: ec90
A2A (h) = target: T3, A2A (h) (Homo sapiens, UniProt P29274); test: In vitro CEREP profiling, A2A (h) (agonist radioligand); type: binding; conditions: test compound 10 uM
T3 construct: purchased Eurofins Cerep (SafetyScreen44), recognised from the panel format
Source text: as §1

[2] = target: T4, norepinephrine transporter (h) (Homo sapiens, UniProt P23975); test: In vitro CEREP profiling, norepinephrine transporter (h) (antagonist radioligand); type: binding; conditions: test compound concentration 10 uM
T4 construct: purchased Eurofins Cerep (SafetyScreen44), recognised from the panel format
Source text: as §1

Lck kinase (h) = target: T5, Lck kinase (h) (Homo sapiens, UniProt P06239); test: In vitro CEREP profiling, Lck kinase (h); type: biochemical; conditions: test compound concentration 10 uM; Enzyme and Cell-based assays
T5 construct: purchased Eurofins Cerep (SafetyScreen44), recognised from the panel format
Source text: as §1

Protein binding = type: in vitro ADME
Source text: Supplement media-1.zip/Protein_Binding.csv, table | column: fu; perc_bound; perc_free; perc_recovered

dopamine transporter (h) = target: T6, dopamine transporter (h) (Homo sapiens, UniProt Q01959); test: In vitro CEREP profiling, dopamine transporter (h) (antagonist radioligand); type: binding; conditions: test compound concentration 10 uM
T6 construct: purchased Eurofins Cerep (SafetyScreen44), recognised from the panel format
Source text: as §1

beta1 (h) = target: T7, beta1 (h) (Homo sapiens, UniProt P08588); test: In vitro CEREP profiling, beta1 (h) (agonist radioligand); type: binding; conditions: test compound 10 uM
T7 construct: purchased Eurofins Cerep (SafetyScreen44), recognised from the panel format
Source text: as §1

mu (MOP) (h) = target: T8, mu (MOP) (h) (Homo sapiens, UniProt P35372); test: In vitro CEREP profiling, mu (MOP) (h) (agonist radioligand); type: binding; conditions: test compound concentration 10 uM
T8 construct: purchased Eurofins Cerep (SafetyScreen44), recognised from the panel format
Source text: as §1

COX2(h) = target: T9, COX2(h) (Homo sapiens, UniProt P35354); test: In vitro CEREP profiling, COX2(h); type: biochemical; conditions: test compound concentration 10 uM; Enzyme and Cell-based assays
T9 construct: purchased Eurofins Cerep (SafetyScreen44), recognised from the panel format
T9 sequence (P35354 18-604): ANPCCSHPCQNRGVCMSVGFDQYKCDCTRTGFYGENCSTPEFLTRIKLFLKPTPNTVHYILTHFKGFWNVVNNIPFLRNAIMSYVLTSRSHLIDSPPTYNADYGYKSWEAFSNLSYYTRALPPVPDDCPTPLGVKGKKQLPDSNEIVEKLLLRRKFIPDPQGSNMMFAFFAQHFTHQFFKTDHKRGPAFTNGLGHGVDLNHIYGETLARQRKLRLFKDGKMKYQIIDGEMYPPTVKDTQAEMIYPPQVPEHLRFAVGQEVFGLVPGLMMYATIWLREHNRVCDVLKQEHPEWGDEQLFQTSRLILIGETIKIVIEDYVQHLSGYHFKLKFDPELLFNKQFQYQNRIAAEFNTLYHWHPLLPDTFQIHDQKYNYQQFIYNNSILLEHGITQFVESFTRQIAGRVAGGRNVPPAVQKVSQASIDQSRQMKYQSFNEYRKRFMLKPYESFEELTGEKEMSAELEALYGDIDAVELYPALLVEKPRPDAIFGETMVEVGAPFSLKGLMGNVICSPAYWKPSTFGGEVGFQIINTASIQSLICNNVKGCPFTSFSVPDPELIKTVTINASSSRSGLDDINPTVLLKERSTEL
Source text: as §1

PDE4D2 (h) = target: T10, PDE4D2 (h) (Homo sapiens, UniProt Q08499); test: In vitro CEREP profiling, PDE4D2 (h); type: biochemical; conditions: test compound concentration 10 uM; Enzyme and Cell-based assays
T10 construct: purchased Eurofins Cerep (SafetyScreen44), recognised from the panel format
Source text: as §1

[3] = maximum measured response of dose series
[4] = minimum measured response of dose series
[5] = In vitro dog plasma protein binding
[6] = In vitro fetal calf serum protein binding
[7] = In vitro human plasma protein binding
[8] = In vitro mouse plasma protein binding
[9] = In vitro rat plasma protein binding

T4 sequence (P23975 whole entry): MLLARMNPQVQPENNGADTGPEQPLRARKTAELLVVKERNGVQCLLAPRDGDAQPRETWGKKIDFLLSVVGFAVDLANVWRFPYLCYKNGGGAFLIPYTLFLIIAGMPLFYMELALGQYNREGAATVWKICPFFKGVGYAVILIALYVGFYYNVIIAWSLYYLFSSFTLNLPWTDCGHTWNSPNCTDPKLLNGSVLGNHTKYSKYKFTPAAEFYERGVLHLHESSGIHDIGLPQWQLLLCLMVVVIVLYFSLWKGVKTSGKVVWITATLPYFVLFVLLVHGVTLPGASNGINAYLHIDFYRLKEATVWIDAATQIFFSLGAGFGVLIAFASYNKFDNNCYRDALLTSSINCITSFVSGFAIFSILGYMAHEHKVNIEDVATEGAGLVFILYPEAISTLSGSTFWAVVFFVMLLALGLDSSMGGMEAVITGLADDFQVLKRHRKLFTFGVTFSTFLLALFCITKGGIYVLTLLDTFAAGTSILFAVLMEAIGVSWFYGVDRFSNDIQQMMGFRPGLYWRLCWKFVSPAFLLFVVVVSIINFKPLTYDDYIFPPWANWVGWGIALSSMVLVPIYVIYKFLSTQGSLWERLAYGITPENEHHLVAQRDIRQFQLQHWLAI
T6 sequence (Q01959 whole entry): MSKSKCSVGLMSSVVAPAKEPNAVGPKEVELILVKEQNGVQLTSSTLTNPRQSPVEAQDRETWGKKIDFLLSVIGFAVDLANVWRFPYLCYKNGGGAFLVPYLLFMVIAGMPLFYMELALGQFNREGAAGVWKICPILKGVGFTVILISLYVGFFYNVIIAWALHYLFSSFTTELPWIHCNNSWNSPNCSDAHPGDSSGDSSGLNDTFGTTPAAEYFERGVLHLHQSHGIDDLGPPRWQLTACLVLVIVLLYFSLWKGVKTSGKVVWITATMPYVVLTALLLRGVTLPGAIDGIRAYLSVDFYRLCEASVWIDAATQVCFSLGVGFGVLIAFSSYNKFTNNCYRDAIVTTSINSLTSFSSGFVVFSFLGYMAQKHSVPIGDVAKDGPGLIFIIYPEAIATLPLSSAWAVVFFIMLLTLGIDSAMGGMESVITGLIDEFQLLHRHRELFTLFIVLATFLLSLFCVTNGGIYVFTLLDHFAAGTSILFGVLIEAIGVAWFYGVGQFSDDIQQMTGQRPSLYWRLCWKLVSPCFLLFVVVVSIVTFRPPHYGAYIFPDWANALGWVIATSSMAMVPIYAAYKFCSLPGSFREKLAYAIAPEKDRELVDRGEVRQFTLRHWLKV
T7 sequence (P08588 whole entry): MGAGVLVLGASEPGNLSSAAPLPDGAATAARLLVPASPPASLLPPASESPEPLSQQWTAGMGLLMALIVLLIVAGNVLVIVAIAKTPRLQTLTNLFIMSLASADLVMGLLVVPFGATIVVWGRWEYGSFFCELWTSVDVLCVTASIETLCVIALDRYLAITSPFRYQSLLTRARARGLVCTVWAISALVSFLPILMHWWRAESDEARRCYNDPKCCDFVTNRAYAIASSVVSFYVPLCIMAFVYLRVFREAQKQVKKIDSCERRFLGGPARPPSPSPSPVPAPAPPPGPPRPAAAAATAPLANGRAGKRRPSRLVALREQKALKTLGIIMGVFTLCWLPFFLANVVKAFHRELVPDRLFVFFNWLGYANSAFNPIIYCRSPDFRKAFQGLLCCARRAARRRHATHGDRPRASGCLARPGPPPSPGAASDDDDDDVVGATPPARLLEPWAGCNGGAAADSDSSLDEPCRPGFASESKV
T10 sequence (Q08499 303-809): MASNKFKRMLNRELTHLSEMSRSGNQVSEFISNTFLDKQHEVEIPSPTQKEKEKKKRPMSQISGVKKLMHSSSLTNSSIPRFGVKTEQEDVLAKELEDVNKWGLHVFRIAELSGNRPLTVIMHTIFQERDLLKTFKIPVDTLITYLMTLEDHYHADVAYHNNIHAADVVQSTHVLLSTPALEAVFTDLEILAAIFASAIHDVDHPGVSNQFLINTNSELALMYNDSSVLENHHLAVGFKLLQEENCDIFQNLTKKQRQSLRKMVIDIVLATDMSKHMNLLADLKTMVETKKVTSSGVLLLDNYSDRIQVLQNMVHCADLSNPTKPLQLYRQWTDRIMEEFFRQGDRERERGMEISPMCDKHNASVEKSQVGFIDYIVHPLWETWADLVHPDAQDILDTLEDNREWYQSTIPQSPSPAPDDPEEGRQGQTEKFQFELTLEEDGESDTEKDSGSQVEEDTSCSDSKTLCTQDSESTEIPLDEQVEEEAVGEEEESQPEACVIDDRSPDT
T1 sequence (P31645 whole entry): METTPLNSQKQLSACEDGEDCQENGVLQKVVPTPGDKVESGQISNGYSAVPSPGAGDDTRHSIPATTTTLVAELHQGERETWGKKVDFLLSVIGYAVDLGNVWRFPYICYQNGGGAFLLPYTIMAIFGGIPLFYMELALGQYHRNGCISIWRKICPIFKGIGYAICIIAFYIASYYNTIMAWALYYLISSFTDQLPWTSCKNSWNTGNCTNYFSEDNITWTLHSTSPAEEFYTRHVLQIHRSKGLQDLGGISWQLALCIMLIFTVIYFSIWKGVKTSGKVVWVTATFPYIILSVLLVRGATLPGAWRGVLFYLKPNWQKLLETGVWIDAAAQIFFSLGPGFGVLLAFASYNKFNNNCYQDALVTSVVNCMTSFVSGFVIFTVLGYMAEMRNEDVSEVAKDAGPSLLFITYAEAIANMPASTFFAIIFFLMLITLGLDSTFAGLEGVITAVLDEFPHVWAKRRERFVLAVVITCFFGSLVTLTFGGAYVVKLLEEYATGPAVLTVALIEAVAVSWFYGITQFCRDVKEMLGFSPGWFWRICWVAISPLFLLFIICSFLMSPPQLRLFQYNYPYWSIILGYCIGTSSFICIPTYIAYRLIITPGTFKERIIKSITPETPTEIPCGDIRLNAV
T5 sequence (P06239 whole entry): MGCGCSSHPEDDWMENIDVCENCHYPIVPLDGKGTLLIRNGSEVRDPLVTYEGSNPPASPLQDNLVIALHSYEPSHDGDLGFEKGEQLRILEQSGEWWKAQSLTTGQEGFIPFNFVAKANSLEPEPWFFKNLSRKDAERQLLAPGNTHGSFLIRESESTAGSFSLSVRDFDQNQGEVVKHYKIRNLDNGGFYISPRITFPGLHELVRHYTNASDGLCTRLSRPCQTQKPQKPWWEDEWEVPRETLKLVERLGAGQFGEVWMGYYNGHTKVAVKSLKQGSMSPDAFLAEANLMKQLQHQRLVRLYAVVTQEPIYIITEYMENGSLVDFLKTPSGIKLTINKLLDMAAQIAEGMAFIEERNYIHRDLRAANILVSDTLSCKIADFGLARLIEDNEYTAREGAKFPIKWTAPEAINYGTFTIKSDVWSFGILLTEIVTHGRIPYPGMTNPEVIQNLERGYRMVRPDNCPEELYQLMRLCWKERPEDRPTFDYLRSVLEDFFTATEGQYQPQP
T3 sequence (P29274 whole entry): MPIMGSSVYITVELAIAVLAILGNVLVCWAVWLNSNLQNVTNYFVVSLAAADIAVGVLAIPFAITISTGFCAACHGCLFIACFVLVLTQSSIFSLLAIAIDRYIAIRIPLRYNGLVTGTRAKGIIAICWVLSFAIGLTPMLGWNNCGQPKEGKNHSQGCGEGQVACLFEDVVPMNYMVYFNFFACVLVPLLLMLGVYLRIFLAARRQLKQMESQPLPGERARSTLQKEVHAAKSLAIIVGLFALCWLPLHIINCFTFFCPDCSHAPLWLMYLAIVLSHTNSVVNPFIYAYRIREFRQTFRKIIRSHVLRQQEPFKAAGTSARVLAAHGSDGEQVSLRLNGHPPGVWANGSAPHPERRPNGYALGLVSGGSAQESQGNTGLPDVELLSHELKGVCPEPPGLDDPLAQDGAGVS
T8 sequence (P35372 whole entry): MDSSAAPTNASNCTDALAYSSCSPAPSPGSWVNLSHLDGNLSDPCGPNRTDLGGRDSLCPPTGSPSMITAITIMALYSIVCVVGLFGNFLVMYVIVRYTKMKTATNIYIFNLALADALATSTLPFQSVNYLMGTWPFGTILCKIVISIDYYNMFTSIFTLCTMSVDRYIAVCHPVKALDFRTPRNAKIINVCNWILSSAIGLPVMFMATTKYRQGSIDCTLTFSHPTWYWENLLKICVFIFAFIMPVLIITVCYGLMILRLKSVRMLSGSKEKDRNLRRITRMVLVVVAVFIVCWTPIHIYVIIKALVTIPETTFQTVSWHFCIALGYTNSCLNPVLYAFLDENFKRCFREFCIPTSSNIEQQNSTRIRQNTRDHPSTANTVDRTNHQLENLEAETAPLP

SMILES	perc_inhibition: % inhibition of the binding of a ligand specific for each target, 5-HT transporter (h) (antagonist radioligand) (5-HT transporter (h)) [%]	perc_inhibition (% inhibition of the binding of a ligand specific for each target) (5-HT1A (h)) [%]	perc_max_measured (MERS-CoV)	perc_min_measured (MERS-CoV)	EC50 (MERS-CoV) [µM]	EC90 (MERS-CoV) [µM]	perc_max_measured ([1]; maximum measured response) [%]	perc_max_measured [1, 3] [%]	perc_min_measured ([1]; minimum measured response) [%]	perc_min_measured [1, 4] [%]	EC50 [1]	EC90 [1]	perc_inhibition (% inhibition of the binding of a ligand specific for each target) (A2A (h)) [%]	perc_inhibition (% inhibition of the binding of a ligand specific for each target) [2] [%]	perc_inhibition: % inhibition of control enzyme activity, Lck kinase (h) (Lck kinase (h)) [%]	fu (Protein binding; [5])	perc_bound (Protein binding; [5]) [%]	perc_free (Protein binding; [5]) [%]	perc_recovered (Protein binding; [5]) [%]	fu (Protein binding; [6])	further results
CNCc1cc(-c2cc3c(N[C@@H](c4ccc5c(c4)S(=O)(=O)CCC5)C(C)C)ncnc3[nH]2)co1 [ASAP-0011176]	24	6	108.298% and 134.469%	91.617% and 86.125%	> 5	> 5	134.366	113.346	28.123	56.361	11.6 µM and > 20 µM	> 20 µM	21	39	68	0.088	91.2	8.77	70.87	0.08	perc_bound (Protein binding; [6]): 92.0%; perc_free (Protein binding; [6]): 8.01%; perc_recovered (Protein binding; [6]): 78.6%; fu (Protein binding; [7]): 0.08; perc_bound (Protein binding; [7]): 92.0%; perc_free (Protein binding; [7]): 8.01%; perc_recovered (Protein binding; [7]): 78.61%; fu (Protein binding; [8]): 0.031; perc_bound (Protein binding; [8]): 96.9%; perc_free (Protein binding; [8]): 3.14%; perc_recovered (Protein binding; [8]): 94.01%; fu (Protein binding; [9]): 0.072; perc_bound (Protein binding; [9]): 92.8%; perc_free (Protein binding; [9]): 7.24%; perc_recovered (Protein binding; [9]): 95.34%; perc_inhibition (% inhibition of the binding of a ligand specific for each target) (dopamine transporter (h)): 50%; perc_inhibition (% inhibition of the binding of a ligand specific for each target) (beta1 (h)): -4%; perc_inhibition (% inhibition of the binding of a ligand specific for each target) (mu (MOP) (h)): -5%; perc_inhibition: % inhibition of control enzyme activity, COX2(h) (COX2(h)): 24%; perc_inhibition: % inhibition of control enzyme activity, PDE4D2 (h) (PDE4D2 (h)): 43%
CC(C)[C@H](Nc1ncnc2[nH]c(-c3cnn(C)c3C#N)cc12)c1ccc2c(n1)OCCO2 [ASAP-0010715]	4	43	122.135% and 106.633%	93.468% and 72.24%	> 5	> 5	105.242	125.33	1.508	4.425	0.508 µM and 0.819 µM	1.96 µM and 3.36 µM	84	9	20	0.042	95.8	4.24	87.48	0.072	perc_bound (Protein binding; [6]): 92.8%; perc_free (Protein binding; [6]): 7.24%; perc_recovered (Protein binding; [6]): 89.85%; fu (Protein binding; [7]): 0.005; perc_bound (Protein binding; [7]): 99.5%; perc_free (Protein binding; [7]): 0.541%; perc_recovered (Protein binding; [7]): 113.8%; fu (Protein binding; [8]): 0.026; perc_bound (Protein binding; [8]): 97.4%; perc_free (Protein binding; [8]): 2.56%; perc_recovered (Protein binding; [8]): 93.63%; fu (Protein binding; [9]): 0.02; perc_bound (Protein binding; [9]): 98.0%; perc_free (Protein binding; [9]): 2.04%; perc_recovered (Protein binding; [9]): 97.27%; perc_inhibition (% inhibition of the binding of a ligand specific for each target) (dopamine transporter (h)): 29%; perc_inhibition (% inhibition of the binding of a ligand specific for each target) (beta1 (h)): 11%; perc_inhibition (% inhibition of the binding of a ligand specific for each target) (mu (MOP) (h)): 15%; perc_inhibition: % inhibition of control enzyme activity, COX2(h) (COX2(h)): -2%; perc_inhibition: % inhibition of control enzyme activity, PDE4D2 (h) (PDE4D2 (h)): 70%
